In publication PMC9527238, “Glutamate and GABAA receptor crosstalk mediates homeostatic regulation of neuronal excitation in the mammalian brain” (Signal Transduction and Targeted Therapy, 2022):

Columns and labels:
[1] = system: GABAAR-mediated currents, WT mice; experiment: Whole-cell recording of CA1 neurons, hippocampal slices of WT mice; type: cell-based, mouse; settings: L-Glu 50 µM
Method: (§1) We next determined if glutamate-mediated allosteric potentiation of GABAAR function was impaired in hippocampal slices acutely prepared from postnatal 90-day-old KI mice. Whole-cell recordings of CA1 neurons were performed under voltage clamp configuration at a holding potential of −60 mV.
(§2) Mice were deeply anesthetized with urethane (1.5 g/kg, i.p.) and transcardially perfused with ice cold sucrose hypertonic cutting solution (in mM: KCl 3.0, NaH2PO4.H2O 1.25, NaHCO3 26, Na-vitamin C 0.4, Na-lactate 2.0, Na-pyruvate 2.0, D-glucose 10.0, Sucrose 220, CaCl2 0.1, MgCl2 2, MgSO4 4.0, pH 7.4, 290–300 mOsm/l) prior to decapitation as described previously.[47] After decapitation, the brain was rapidly removed and transferred to the ice cold cutting solution bubbled with 95% O2 and 5% CO2, and acute coronal brain slices (400 μm) were prepared on a Leica vibratome (VT1200S, Germany). All brain slices were placed into a standard artificial cerebral spinal fluid (ACSF) (in mM: NaCl 124, KCl 2.8, NaH2PO4.H2O 1.25, NaHCO3 26, Na-vitamin C 0.4, Na-lactate 2.0, Na-pyruvate 2.0, D-glucose 10.0, CaCl2 2, MgSO4 1.2, pH 7.4, 290–300 mOsm/l) incubated at 35 °C for 2 h prior to recording. Field excitatory postsynaptic potential (fEPSP) recordings were performed under current-clamp mode using HEKA EPC10 patch-clamp amplifier (HEKA Electronic, Lambrecht/Pfalz, Germany). […]

[2] = biological target: T1, α1/β3/γ2 GABAAR (Rattus norvegicus, UniProt P62813+P63079); experiment: Patch clamp, HEK293, β3-containing GABAAR; type: cell-based; settings: wild-type α1/β3/γ2
T1 construct: expressed in transfected cells; host or cells: HEK293

[3] = biological target: T2, GABAAR-mediated currents, β2E181G KI mice (Mus musculus, UniProt P63137, E206G); experiment: Whole-cell recording of CA1 neurons, hippocampal slices of homozygous β2E181G KI mice; type: cell-based; settings: L-Glu 50 µM; KI slices
T2 construct: from tissue; host or cells: acute hippocampal slices of homozygous β2E181G knock-in mice (C57BL/6J), CA1 neurons
Method: as §1, §2

[4] = biological target: T3, rat α1β2γ2 GABAARs (Rattus norvegicus, UniProt P62813+P63138); experiment: Whole-cell patch clamp of GABA-evoked currents, HEK293 cells expressing wild-type α1β2γ2; type: cell-based
T3 construct: expressed in transfected cells; host or cells: HEK293
Method: Co-expression of the α and β subunits is the minimum requirement for a functional recombinant GABAAR expressed in a heterologous cell line such as HEK293, while co-expression of the α, β and γ subunits is required for the recombinant receptor with a full pharmacological profile.[2] We therefore transiently expressed either rat α1β2 or α1β2γ2 subunits in HEK293 cells.
(§3) HEK293 cells were cultured in DMEM (Invitrogen) supplemented with 10% fetal bovine serum. Cells were grown to 40–60% confluence and transiently transfected using Lipofectamine 2000 (Invitrogen) with 1:0.5–1 plasmid/lipid ratio. Cells were transfected with a pBK-CMV expression vector containing a rat recombinant GABAAR α, β or γ subunits. Co-transections were done with a plasmid ratio of 1:1 αβ and 2:2:1 for αβγ subunit combinations, respectively. pcDNA3.1-GFP was also co-transfected along with GABAAR subunits as a transfected marker in order to facilitate the visualization of the transfected cells during electrophysiological experiments. Cells were re-plated on glass coverslips after 15–20 h transfection and were cultured for an additional 15–24 h before whole-cell patch-clamp recordings.
(§4) Whole-cell patch-clamp recordings were performed under voltage-clamp mode using an Axopatch 200B or 1D patch-clamp amplifier (Molecular Devices) on HEK293 cells and cultured neurons. Whole-cell currents were recorded at a holding potential of −60 mV, and signals were filtered at 2 kHz, digitized at 10 kHz (Digidata 1322 A). Recording pipettes (3–5 MΩ) were filled with the intracellular solution that contained (mM): CsCl 140, HEPES 10, Mg-ATP 4, QX-314 5, pH 7.20; osmolarity, 290–295 mOsm. BAPTA (10 mM) was added in the intracellular solution. The coverslips were continuously superfused with the extracellular solution containing (mM): NaCl 140, KCl 5.4, HEPES 10, MgCl2 1.0, CaCl2 1.3, glucose 20, pH 7.4; osmolarity, 305–315 mOsm. […] Dose–response curves were created by fitting data to Hill equation: I = Imax/[1 + (EC50/[A])^n], where I is the current, Imax is the maximum current, [A] is a given concentration of agonist, n is the Hill coefficient. […] All experiments were performed at room temperature.

[5] = biological target: T4, α1 β2 ^I180A γ2 GABAAR (Rattus norvegicus, UniProt P62813+P63138, I205A); experiment: Patch clamp, HEK293, mutant GABAAR; type: cell-based; settings: glutamate 100 μM co-applied with GABA 1 μM; normalized to wild-type α1β2γ2
T4 construct: expressed in transfected cells; host or cells: HEK293
Method: (§5) To positively confirm one of these two putative binding sites involved in glutamate binding, we performed a systemic mutational analysis of critical amino acids around these two sites followed by electrophysiological characterizations of their impacts on glutamate potentiation in HEK293 cells expressing wild-type or mutated α1β2γ2 GABAARs (Table 1).
as §3
(§6) The site-directed mutagenesis of α, β or γ subunits were performed by using the QuikChange method (Stratagene). […] Wild-type or mutant subunits were transfected in HEK293 cells and subjected to electrophysiology examinations.
as §4

[6] = biological target: T5, α1^S158A β2 γ2 GABAAR (Rattus norvegicus, UniProt P62813+P63138, S185A); experiment: Patch clamp, HEK293, mutant GABAAR; type: cell-based; settings: glutamate 100 μM co-applied with GABA 1 μM; normalized to wild-type α1β2γ2
T5 construct: expressed in transfected cells; host or cells: HEK293
Method: as §5, §3, §6, §4

[7] = biological target: T6, α1^F99A β2 γ2 GABAAR (Rattus norvegicus, UniProt P62813+P63138, F126A); experiment: Patch clamp, HEK293, mutant GABAAR; type: cell-based; settings: glutamate 100 μM co-applied with GABA 1 μM; normalized to wild-type α1β2γ2
T6 construct: expressed in transfected cells; host or cells: HEK293
Method: as §5, §3, §6, §4

[8] = biological target: T7, α1^Y159A β2 γ2 GABAAR (Rattus norvegicus, UniProt P62813+P63138, Y186A); experiment: Patch clamp, HEK293, mutant GABAAR; type: cell-based; settings: glutamate 100 μM co-applied with GABA 1 μM; normalized to wild-type α1β2γ2
T7 construct: expressed in transfected cells; host or cells: HEK293
Method: as §5, §3, §6, §4

[9] = biological target: T8, α1^E208A β2 γ2 GABAAR (Rattus norvegicus, UniProt P62813+P63138, E235A); experiment: Patch clamp, HEK293, mutant GABAAR; type: cell-based; settings: glutamate 100 μM co-applied with GABA 1 μM; normalized to wild-type α1β2γ2
T8 construct: expressed in transfected cells; host or cells: HEK293
Method: as §5, §3, §6, §4

[10] = biological target: T9, α1^S205A β2 γ2 GABAAR (Rattus norvegicus, UniProt P62813+P63138, S232A); experiment: Patch clamp, HEK293, mutant GABAAR; type: cell-based; settings: glutamate 100 μM co-applied with GABA 1 μM; normalized to wild-type α1β2γ2
T9 construct: expressed in transfected cells; host or cells: HEK293
Method: as §5, §3, §6, §4

[11] = biological target: T10, α1^T206A β2 γ2 GABAAR (Rattus norvegicus, UniProt P62813+P63138, T233A); experiment: Patch clamp, HEK293, mutant GABAAR; type: cell-based; settings: glutamate 100 μM co-applied with GABA 1 μM; normalized to wild-type α1β2γ2
T10 construct: expressed in transfected cells; host or cells: HEK293
Method: as §5, §3, §6, §4

[12] = biological target: T11, α1 β2^V177A γ2 GABAAR (Rattus norvegicus, UniProt P62813+P63138, V202A); experiment: Patch clamp, HEK293, mutant GABAAR; type: cell-based; settings: glutamate 100 μM co-applied with GABA 1 μM; normalized to wild-type α1β2γ2
T11 construct: expressed in transfected cells; host or cells: HEK293
Method: as §5, §3, §6, §4

T3 sequence (P62813 28-455): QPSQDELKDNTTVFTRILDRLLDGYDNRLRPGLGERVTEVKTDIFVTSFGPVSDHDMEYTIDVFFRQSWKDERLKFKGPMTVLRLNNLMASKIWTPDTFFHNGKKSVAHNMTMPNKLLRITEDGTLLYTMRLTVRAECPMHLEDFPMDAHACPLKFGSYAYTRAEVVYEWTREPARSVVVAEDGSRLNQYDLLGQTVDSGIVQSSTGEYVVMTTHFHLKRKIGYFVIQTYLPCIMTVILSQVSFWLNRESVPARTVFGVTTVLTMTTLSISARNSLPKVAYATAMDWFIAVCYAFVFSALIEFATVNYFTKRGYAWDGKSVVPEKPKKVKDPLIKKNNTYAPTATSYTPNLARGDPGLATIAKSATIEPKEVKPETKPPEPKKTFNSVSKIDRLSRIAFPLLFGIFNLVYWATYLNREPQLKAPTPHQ
T3 sequence (P63138 26-474): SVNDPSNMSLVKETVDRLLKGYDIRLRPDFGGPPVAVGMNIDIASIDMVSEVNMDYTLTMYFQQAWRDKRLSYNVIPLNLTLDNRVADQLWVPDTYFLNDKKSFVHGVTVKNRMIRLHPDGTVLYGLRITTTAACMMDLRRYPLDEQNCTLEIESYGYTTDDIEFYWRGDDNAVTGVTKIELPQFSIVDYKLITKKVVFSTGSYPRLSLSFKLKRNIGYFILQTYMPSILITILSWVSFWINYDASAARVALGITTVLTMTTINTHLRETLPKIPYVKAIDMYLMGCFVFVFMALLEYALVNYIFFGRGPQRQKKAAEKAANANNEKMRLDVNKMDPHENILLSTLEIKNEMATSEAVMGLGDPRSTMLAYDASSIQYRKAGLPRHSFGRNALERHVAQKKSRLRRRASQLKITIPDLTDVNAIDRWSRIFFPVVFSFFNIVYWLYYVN
T3 sequence (P18508 39-466 partner): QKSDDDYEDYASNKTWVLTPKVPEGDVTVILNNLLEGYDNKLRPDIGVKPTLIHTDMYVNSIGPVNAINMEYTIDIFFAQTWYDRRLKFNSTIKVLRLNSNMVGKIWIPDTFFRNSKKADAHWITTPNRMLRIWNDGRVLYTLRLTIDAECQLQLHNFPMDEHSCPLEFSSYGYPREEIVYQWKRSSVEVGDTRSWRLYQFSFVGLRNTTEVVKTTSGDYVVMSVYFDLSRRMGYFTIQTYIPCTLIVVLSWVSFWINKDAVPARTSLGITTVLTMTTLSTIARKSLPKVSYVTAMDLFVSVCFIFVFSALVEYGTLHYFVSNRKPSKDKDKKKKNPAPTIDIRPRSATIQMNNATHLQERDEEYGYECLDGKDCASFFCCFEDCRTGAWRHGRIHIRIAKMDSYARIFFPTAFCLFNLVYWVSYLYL
T7 sequence (P62813 28-455 Y186A): as the sequence (P62813 28-455) above, with Y159A counted along it
T7 sequence (P63138 26-474): as the sequence (P63138 26-474) above
T7 sequence (P18508 39-466 partner): as the sequence (P18508 39-466 partner) above
T6 sequence (P62813 28-455 F126A): as the sequence (P62813 28-455) above, with F99A counted along it
T6 sequence (P63138 26-474): as the sequence (P63138 26-474) above
T6 sequence (P18508 39-466 partner): as the sequence (P18508 39-466 partner) above
T2 sequence (P63137 26-512 E206G): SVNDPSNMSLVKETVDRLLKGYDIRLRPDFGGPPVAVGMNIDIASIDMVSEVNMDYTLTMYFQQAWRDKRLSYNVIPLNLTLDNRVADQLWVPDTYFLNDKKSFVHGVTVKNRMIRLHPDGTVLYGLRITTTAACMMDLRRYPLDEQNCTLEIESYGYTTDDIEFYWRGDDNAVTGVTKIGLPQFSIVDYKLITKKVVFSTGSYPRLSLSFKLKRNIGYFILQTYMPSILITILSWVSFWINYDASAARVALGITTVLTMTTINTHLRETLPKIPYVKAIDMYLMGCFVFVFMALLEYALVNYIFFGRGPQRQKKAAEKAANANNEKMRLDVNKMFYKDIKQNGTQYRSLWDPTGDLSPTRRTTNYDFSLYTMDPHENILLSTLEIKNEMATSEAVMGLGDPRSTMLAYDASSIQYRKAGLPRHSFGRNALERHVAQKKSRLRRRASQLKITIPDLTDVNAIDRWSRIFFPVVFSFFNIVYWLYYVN
T8 sequence (P62813 28-455 E235A): as the sequence (P62813 28-455) above, with E208A counted along it
T8 sequence (P63138 26-474): as the sequence (P63138 26-474) above
T8 sequence (P18508 39-466 partner): as the sequence (P18508 39-466 partner) above
T4 sequence (P62813 28-455): as the sequence (P62813 28-455) above
T4 sequence (P63138 26-474 I205A): as the sequence (P63138 26-474) above, with I180A counted along it
T4 sequence (P18508 39-466 partner): as the sequence (P18508 39-466 partner) above
T11 sequence (P62813 28-455): as the sequence (P62813 28-455) above
T11 sequence (P63138 26-474 V202A): as the sequence (P63138 26-474) above, with V177A counted along it
T11 sequence (P18508 39-466 partner): as the sequence (P18508 39-466 partner) above
T1 sequence (P62813 28-455): as the sequence (P62813 28-455) above
T1 sequence (P63079 26-473): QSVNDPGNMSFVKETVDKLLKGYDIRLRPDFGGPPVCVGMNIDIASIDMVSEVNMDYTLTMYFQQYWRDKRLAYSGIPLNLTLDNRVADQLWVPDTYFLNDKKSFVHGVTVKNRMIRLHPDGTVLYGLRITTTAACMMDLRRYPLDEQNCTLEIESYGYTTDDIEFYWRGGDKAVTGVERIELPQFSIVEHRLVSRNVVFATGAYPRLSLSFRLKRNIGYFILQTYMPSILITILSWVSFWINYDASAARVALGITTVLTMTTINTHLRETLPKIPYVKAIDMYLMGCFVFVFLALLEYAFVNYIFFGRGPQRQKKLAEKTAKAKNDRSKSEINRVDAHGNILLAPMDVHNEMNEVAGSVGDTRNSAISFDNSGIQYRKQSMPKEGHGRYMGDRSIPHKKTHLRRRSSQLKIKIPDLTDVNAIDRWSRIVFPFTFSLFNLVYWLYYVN
T1 sequence (P18508 39-466 partner): as the sequence (P18508 39-466 partner) above
T10 sequence (P62813 28-455 T233A): as the sequence (P62813 28-455) above, with T206A counted along it
T10 sequence (P63138 26-474): as the sequence (P63138 26-474) above
T10 sequence (P18508 39-466 partner): as the sequence (P18508 39-466 partner) above
T9 sequence (P62813 28-455 S232A): as the sequence (P62813 28-455) above, with S205A counted along it
T9 sequence (P63138 26-474): as the sequence (P63138 26-474) above
T9 sequence (P18508 39-466 partner): as the sequence (P18508 39-466 partner) above
T5 sequence (P62813 28-455 S185A): as the sequence (P62813 28-455) above, with S158A counted along it
T5 sequence (P63138 26-474): as the sequence (P63138 26-474) above
T5 sequence (P18508 39-466 partner): as the sequence (P18508 39-466 partner) above

N[C@@H](CCC(=O)O)C(=O)O [glutamate, Glutamate]
GABAAR-mediated IPSC currents relative to baseline [1]: 153.0 ± 9.5%
potentiation of GABA-induced currents by glutamate [2]: could also potentiate GABA-induced currents
eIPSCs relative to baseline [3]: 114.2 ± 9.9%
GABA currents in presence of ligand, compared with GABA alone [4]: 169.3 ± 6.9%
Relative potentiation [4]: 100.0%
Relative potentiation [5]: 18.8 ± 12.9%
Relative potentiation [6]: 106.9 ± 39.8%
Relative potentiation [7]: 96.4 ± 23.0%
Relative potentiation [8]: 90.8 ± 26.7%
Relative potentiation [9]: 90.9 ± 28.7%
Relative potentiation [10]: 113.1 ± 33.0%
Relative potentiation [11]: 129.3 ± 61.7%
Relative potentiation [12]: 89.5 ± 28.3%
